From patent EP2397458A1, “Organic salts and co-crystals of phenylbutyric acid” (Lunamed AG, priority 2010, dated 2011)
Where a name gives a salt, the structure may show the parent alone.

Assays:
[1] = DVS / hygroscopy measurement; assay type: physicochemical; conditions: for hygroscopy: DVS humidity program 50 → 95 → 0 → 50% r.h.
Description: For the measurement of hygroscopy of the salt a Projekt Messtechnik Sorptions Prüfsystem SPS 11 - 100n was used. (Hygroscopy of the phenylbutyric acid for comparison was measured with the Surface Measurement Systems DVS-1 ). The salt sample was placed on an aluminium (SPS 11) holder (for phenylbutyric acid on a platinum holder (DVS-1)) on top of a microbalance and allowed to equilibrate for 2 h at 50% r.h. before starting the pre-defined humidity program: • (1)2hat50%r.h. • (2) 50 → 95% r.h. (5%/h); 5 h at 95% r.h. • (3) 95 → 0% r.h. (5%/h); 5 h at 0% r.h. • (4) 0 → 50% r.h. (5%/h); 2 h at 50% r.h.
For the measurement of hygroscopy of the salt a Projekt Messtechnik Sorptions Prüfsystem SPS 11 - 100n was used. (Hygroscopy of the phenylbutyric acid for comparison was measured with the Surface Measurement Systems DVS-1). The salt sample was placed on an aluminium (SPS 11) holder (for phenylbutyric acid on a platinum holder (DVS-1)) on top of a microbalance and allowed to equilibrate for 2 h at 50% r.h. before starting the pre-defined humidity program: • (1)2hat50%r.h. • (2) 50 → 95% r.h. (5%/h); 5 h at 95% r.h. • (3) 95 → 0% r.h. (5%/h); 5 h at 0% r.h. • (4) 0 → 50% r.h. (5%/h); 2 h at 50% r.h. […] However, raising the relative humidity further from 80 to 95% r.h. results in a steep gain of -10 wt.-%. Upon lowering the relative humidity, the mass decreases only slightly (by -2.2 w1.-%) until a relative humidity of -60 % r.h. is reached. Then a steep loss of -10 wt.-% occurs until the mass of the starting material is reached at -45% r.h. […] Upon lowering the relative humidity from 50 to 0% r.h. a mass loss of -0.3 wt.-% is observed, but it is fully reversible. At the end of the cycle the sample had essentially the same mass as the starting material. […] A sesquihydrate of the hemi-benzathine salt (1 :0.5:1.5 phenylbutyrate:benzathine:H2O) has a theoretical water content of 9.5 wt.-%. A reversible hydrate formation occurred during the DVS experiment.

[2] = Aqueous solubility determination (saturated solution, HPLC; pH of saturated solution); assay type: physicochemical; conditions: for pH of the corresponding saturated solution: saturated aqueous solution after 24 h at 25°C; for solubility at 24 h: doubly distilled water, after 24 h of equilibration at 25°C
Description: (§1) For this measurement approximately 1.0 mL of doubly distilled water was added to 18 mg of the substance according Example 1 to be measured. The resulting suspension was equilibrated in a temperature-controlled Eppendorf Thermomixer Comfort shaker for 24 h at 25°C at a shaking rate of 600 rpm. The solid phase was recovered by filter centrifugation (0.10-µm PVDF membrane) and examined by FT-Raman spectroscopy. Concentrations in the filtrate (i.e., saturated solutions) were determined by HPLC (see below). The pH of the saturated solution was determined with a Metrohm 713 pH meter. HPLC: TSP instrument with P4000 pump, AS3000 autosampler, SCM1000 degasser, UV3000 detector, and PC1000 Vers. 4.1 software. Table 4: HPLC method used for solubility determinations.
as §1, with “8:” for “4:”

Row | SMILES | hygroscopy [1] | hygroscopy ([1]; listed as 4-Phenylbutyrate-Mono-Benethamine salt) | pH of the corresponding saturated solution [2] | solubility at 24 h ([2]; water, solid residue Raman spectrum unchanged) [µg/mL] | gradual mass gain ([1]; DVS, increasing the relative humidity from 50 to 80% r.h.) [wt.-%] | mass loss ([1]; DVS, lowering the relative humidity from 50 to 0% r.h., fully reversible) [wt.-%] | mass decrease ([1]; DVS, lowering the relative humidity from 95% until -60 % r.h. is reached) [w1.-%] | steep loss (mass) ([1]; DVS, lowering the relative humidity from -60 % r.h. until -45% r.h. (mass of starting material reached)) [wt.-%] | steep gain (mass) ([1]; DVS, raising the relative humidity from 80 to 95% r.h.) [wt.-%] | solubility at 24 h ([2]; value corresponds to a hydrate of the benzathine salt, not to the anhydrous form) [µg/mL] | pH of the corresponding saturated solution ([2]; hydrate formed and precipitated during equilibration)
1 | O=C(O)CCCc1ccccc1 [Example 1, 4-Phenylbutyrate-Mono-Benethamine salt] | not hygroscopic | non-hygroscopic | 7.2 | 1900 |  |  |  |  |  |  | 
2 | O=C(O)CCCc1ccccc1 [Example 2, 4-Phenylbutyrate-Hemi-Benzathine salt] |  |  |  |  | -1.3 | -0.3 | -2.2 | -10 | -10 | 1700 | 6.2
